The text below walks through data of article PMC8561395 (Biochemistry, 2021).

The target of test [1] is T1, SsoPTP (Saccharolobus solfataricus, UniProt Q97VZ7).
T1 sequence (Q97VZ7 1-161): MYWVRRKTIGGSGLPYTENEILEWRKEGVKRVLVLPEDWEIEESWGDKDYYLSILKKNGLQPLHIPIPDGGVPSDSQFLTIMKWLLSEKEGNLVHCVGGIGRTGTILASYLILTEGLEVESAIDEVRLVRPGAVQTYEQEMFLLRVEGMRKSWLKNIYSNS
Nature of the test: Inhibition of SsoPTP activity by buffers, pNPP as substrate.

Test [2] concerns bovine low molecular weight PTP. The settings on record: more strongly than observed for SsoPTP; cited from earlier work.
Test [3] has as its target T1, SsoPTP. Nature of the test: Steady-state Michaelis-Menten kinetics with pNPP. The test is classed as biochemical, Sulfolobus solfataricus. The note with it: read-out: KM for pNPP.

SMILES strings stand for the structures. Where two headings read alike, the source gives them in different places.

In the case of `CC(=O)O` [Acetic acid], in test [1] (pNPP substrate), the “Inhibition of SsoPTP (in words)” value is “no inhibitory effect”.

In the case of `O=S(=O)(O)CCCNC1CCCCC1` [CAPS], the affinity in test [1] (pNPP substrate, 100 mM sodium acetate buffer pH 5.0, inhibitor 5–400 mM), expressed as Ki, was 54 ± 11 mM.

In turn, `O=C(O)CC(O)(CC(=O)O)C(=O)O` [Citric acid] displayed an inhibition constant Ki in test [1] of 8 ± 1 mM.

For `O=S(=O)(O)CCN1CCN(CCO)CC1` [HEPES], the “Strength of inhibition of bovine low molecular weight PTP relative to SsoPTP” value in test [2] is on record as “about 10 fold”. Besides, the Ki in test [1] worked out at 44 ± 8 mM.

Consider `O=S(=O)(O)CCCN1CCOCC1` [MOPS], for which, in test [1] (pNPP substrate), the “Inhibition of SsoPTP (in words)” value was “did not show measurable inhibition”.

As for `O=[N+]([O-])c1ccc(OP(=O)(O)O)cc1` [pNPP, p-nitrophenyl phosphate], the Km in test [3] came out at 3.4 mM.
